Patent US9545416B2 (Universite de Montreal, priority 2011, dated 2017)
“Also recorded” adds a separate entry of the source. Where two headings read alike, the source gives them in different places. Each block holds one compound with its values, some of them ahead of it.

What was measured:
F100R cells = experiment: Cell growth assay, type 1 resistant F100R cells; format: cell-based; conditions: GDC-0449, type 1 resistant F100R cells
F10R cells = experiment: Cell number / growth assay, F10R resistant cells; format: cell-based
Procedure: (§1) (FIG. 6). Gli-1 knockdown experiments were performed in parallel.

eIF4E = target: T1, eIF4E (Homo sapiens, UniProt P06730); experiment: Immunoprecipitation of labelled (3H/14C) ribavirin with eIF4E in living cells; format: binding
T1 construct: endogenous in cells; host or cells: parental FaDu, F10R and F100R resistant cells
Procedure: In total, it appears that these AML specimens have developed an “oncogene addiction” to eIF4E making them more sensitive to inhibition of eIF4E than specimens with normal eIF4E levels.
It was determined whether ^14C-ribavirin could immunoprecipitate with eIF4E in the F10R and F100R resistant cell lines.
Cells were treated for 24 hours with ^14C-ribavirin followed by cross-linking and immunoprecipitation and evaluated relative to IgG controls.

Parental FaDu cells = experiment: Cell number / growth assay, parental FaDu cells; format: cell-based
Procedure: as §1

[1] = reported according to Roche; cited from earlier work
[2] = test system: FaDu and THP1 cells and resistant F10R, F100R, T10R, T20R cell lines; experiment: Uptake of 3H-ribavirin in parental and resistant cell lines; format: cell-based; conditions: 0 to 16 hours
[3] = test system: relapsed/refractory M4/M5 AML
From the text: The molecular features identified in present studies were examined to determine whether they were relevant to specimens from patients that received ribavirin monotherapy in the multi-centre phase II AML trial. For responding patients, all available specimens before treatment were monitored, during clinical response, upon the onset of relapse and in non-responders when possible. A total of ten specimens were examined including those from patients that enrolled in the monotherapy trial. […] Of these, samples from 10 patients were available for evaluation of molecular response. […] Gli-1 mRNA levels were monitored using qRT-PCR.

ENT1 = ENT1 RNA levels in patients (RT-qPCR); format: in vivo, human; conditions: Patient 10 (BR), four cycles
From the text: Results from RT-qPCR are normalised against multiple genes to ensure no changes in the normalised occurred as described.

eIF4E gene product = target: T2, eIF4E gene product (Homo sapiens, UniProt P06730); experiment: Molecular analysis of eIF4E gene product activity in trial patients; format: in vivo; conditions: after 28 days of oral ribavirin, monotherapy trial
T2 construct: from tissue; host or cells: leukemia specimens of AML patients in the clinical trials
T2 sequence (P06730 whole entry): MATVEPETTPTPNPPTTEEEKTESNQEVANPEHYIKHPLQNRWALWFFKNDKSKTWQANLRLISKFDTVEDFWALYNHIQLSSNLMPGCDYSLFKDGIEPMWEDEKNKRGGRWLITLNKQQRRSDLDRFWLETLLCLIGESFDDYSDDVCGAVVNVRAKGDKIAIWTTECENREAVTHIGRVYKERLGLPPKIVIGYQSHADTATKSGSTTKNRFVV
From the text: In terms of clinical response, 1 CR (complete remission), 2 PR (partial remission), 3 BR (blast response), 6 SD (stable disease), 3PD (progressive disease) were observed out of 15 evaluable patients. […] A biphasic molecular response was observed, where initially the eIF4E gene product was dramatically re-distributed to the cytoplasm in patients that responded. This was followed by a drop in eIF4E RNA and protein levels (up to one 28 day cycle).

cyclin D1 and VEGF = experiment: Protein levels of eIF4E export and translation targets as a function of ribavirin treatment; format: cell-based
[4] = test system: Gli-1 overexpressing cells; experiment: Cell number assay, Gli-1 overexpressing FaDu cells; format: cell-based; conditions: 20 μM ribavirin
Procedure: as §1

[5] = test system: ENT1, ADK or Gli-1 levels; experiment: Deep sequencing of 10R cells during ribavirin treatment; format: cell-based
From the text: All deep sequencing in resistant cells is done in the absence of ribavirin.

[6] = test system: FaDu and THP1 cells and resistant F10R, F100R, T10R, T20R cell lines; conditions: previous studies; cited from earlier work
MDR1 = MDR1 levels in patients; format: in vivo, human; conditions: Patient 10 (BR), four cycles
Gli-1 mRNA = Gli-1 mRNA levels in patient specimens (qRT-PCR); format: in vivo, human; conditions: two patients that did not respond (PD)
From the text: For responding patients, in all cases Gli-1 mRNA levels were higher at resistance than during response.
The molecular features identified in present studies were examined to determine whether they were relevant to specimens from patients that received ribavirin monotherapy in the multi-centre phase II AML trial. For responding patients, all available specimens before treatment were monitored, during clinical response, upon the onset of relapse and in non-responders when possible. A total of ten specimens were examined including those from patients that enrolled in the monotherapy trial. Results from the trial, when closed, were 1 CR, 2 PR, 3 BR, 6 SD, 3 PD with 15 evaluable patients (Clinicaltrials.gov). Of these, samples from 10 patients were available for evaluation of molecular response. […] Gli-1 mRNA levels were monitored using qRT-PCR. […] (See above table).

ribavirin binding to eIF4E after GDC-0449 treatment (eIF4E; F10R cells): increase in ribavirin binding to eIF4E
Compound: CS(=O)(=O)c1ccc(C(=O)Nc2ccc(Cl)c(-c3ccccn3)c2)c(Cl)c1 [GDC-0449]
growth (F100R cells): no effect
growth (F10R cells; 3 nM GDC-0449 alone, F10R cells): did not affect
reduction in growth (Parental FaDu cells; 3 nM GDC-0449 alone): 25%
plasma levels [1]: 3 nM

Compound: NC(=O)c1ncn([C@@H]2O[C@H](CO)[C@@H](O)[C@H]2O)n1 [ribavirin, 1-[(2R,3R,4S,5R)-3,4-dihydroxy-5-(hydroxymethyl)oxolan-2-yl]-1H-1,2,4-triazole-3-carboxamide]
3H-ribavirin uptake ([2]; F10R cells): indistinguishable from parental FaDu cells
3H-ribavirin uptake ([2]; F100R, T10R and T20R cell lines): severe defects in ribavirin uptake
cell numbers as % of the same cells without ribavirin (F10R cells; 20 μM ribavirin, RNAi knockdown of Gli-1 in F10R cells): about 50%
growth (F10R cells; 20 μM ribavirin, siRNA luciferase treated F10R cells): unaffected
number of patients with BR (blast response) ([3]; out of 15 evaluable patients): 3
number of patients with CR (complete remission) ([3]; out of 15 evaluable patients): 1
number of patients with PD (progressive disease) ([3]; out of 15 evaluable patients): 3
number of patients with PR (partial remission) ([3]; out of 15 evaluable patients): 2
number of patients with SD (stable disease) ([3]; out of 15 evaluable patients): 6
drop in blasts ([3]; patient 18 (SD), during response): 20%
reduction in ENT1 levels at relapse (ENT1): 3 fold
mRNA export activity of the eIF4E gene product (eIF4E gene product): substantially reduced
protein levels of cyclin D1 and VEGF (cyclin D1 and VEGF; parental cell lines): reduces levels of these proteins
protein levels of cyclin D1 and VEGF (cyclin D1 and VEGF; resistant cell lines): no longer affects these
immunoprecipitation of 14C ribavirin with eIF4E (eIF4E; F10R cell line): does not immunoprecipitate with eIF4E; also recorded: did not immunoprecipitate
immunoprecipitation of 14C ribavirin with eIF4E (eIF4E; F100R cell line): does not immunoprecipitate with eIF4E
decrease in cell number (Parental FaDu cells; 10 μM ribavirin for 96 hours): about 50%
reduction of cell number (Parental FaDu cells; 20 μM ribavirin): 50%
cell number as % of the untreated Gli-1 overexpressing cells [4]: 95%
ENT1, ADK or Gli-1 levels on addition of ribavirin [5]: did not alter
time of maximal uptake after ribavirin treatment [6]: 8 to 10 h
increase in MDR1 at relapse (MDR1): 17 fold
change of plasma ribavirin levels (CR patient of combination trial after Ara-C lowered to 10 mg/day): near doubling
ribavirin plasma levels (combination trial with subcutaneous low dose Ara-C): 4 to 10 µM
ribavirin plasma levels (monotherapy trial, 2000 mg/day): 20 to 30 µM
ribavirin plasma levels (monotherapy trial, 2800 mg/day): 20 µM
Gli-1 levels after 28 days of ribavirin (Gli-1 mRNA): not lowered
